The source of these data is patent US5736629A, “Herbicide resistant rice” (priority 1997, dated 1998).

In experiment [1] the target is T1, AHAS (acetohydroxyacid synthase) in enzyme extracts from normal rice variety Lemont (Oryza sativa subsp. japonica, UniProt Q6K2E8).
T1 construct: 40.0 grams (fresh weight) of tissue were extracted in the same manner for each of the three varieties; from tissue; host or cells: stem tissue of greenhouse-grown rice seedlings, variety Lemont (leaf blades removed)
T1 sequence (Q6K2E8 40-644 limits assumed): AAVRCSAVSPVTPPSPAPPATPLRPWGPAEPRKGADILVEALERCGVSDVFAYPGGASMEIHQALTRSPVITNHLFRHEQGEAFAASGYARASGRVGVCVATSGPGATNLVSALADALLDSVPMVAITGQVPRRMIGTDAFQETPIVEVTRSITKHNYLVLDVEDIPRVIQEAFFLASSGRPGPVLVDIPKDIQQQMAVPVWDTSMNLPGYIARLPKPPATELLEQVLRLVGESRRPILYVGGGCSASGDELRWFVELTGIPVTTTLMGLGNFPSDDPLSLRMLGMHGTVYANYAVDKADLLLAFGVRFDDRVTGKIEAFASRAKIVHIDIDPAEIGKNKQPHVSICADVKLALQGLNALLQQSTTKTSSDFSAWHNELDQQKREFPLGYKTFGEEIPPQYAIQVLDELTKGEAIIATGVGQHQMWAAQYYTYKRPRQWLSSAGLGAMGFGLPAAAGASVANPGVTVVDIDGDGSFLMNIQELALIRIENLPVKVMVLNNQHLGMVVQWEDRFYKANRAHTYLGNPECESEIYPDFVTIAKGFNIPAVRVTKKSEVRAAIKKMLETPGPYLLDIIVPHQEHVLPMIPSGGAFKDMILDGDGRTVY
The experiment is described as follows: AHAS enzyme assay, extract from rice variety Lemont. The experiment is classed as biochemical. An excerpt: (§1) The herbicide resistance of the AHAS enzyme from the ATCC 75295 rice line was compared to the resistance of the AHAS enzymes from the rice varieties "Lemont" and "Mercury," the varieties that were the ancestors of this rice line. The procedures used to assay the activity of acetohydroxyacid synthase were substantially as described in B. K. Singh et al., "Assay of Acetohydroxyacid Synthase," Analytical Biochemistry, vol. 171, pp. 173-179 (1988), except as noted. In the first paragraph of Singh's "Materials and Methods," instead of corn suspension culture cells, stem tissues from greenhouse-grown rice seedlings at the four-leaf stage of development were used. Leaf blades were removed, and 40.0 grams (fresh weight) of tissue were extracted in the same manner for each of the three varieties. […] Pursuit herbicide (imazethapyr) was included in the "standard reaction mixture" for the AHAS assay in the concentrations indicated in Table 1 below. Checks were made of direct acetoin formation during the enzyme assay. Each treatment was conducted with two replicates.

In experiment [2] the target is T2, AHAS (acetohydroxyacid synthase) in enzyme extracts from normal rice variety Mercury (Oryza sativa subsp. japonica, UniProt Q6K2E8).
T2 construct: 40.0 grams (fresh weight) of tissue were extracted in the same manner for each of the three varieties; from tissue; host or cells: stem tissue of greenhouse-grown rice seedlings, variety Mercury (leaf blades removed)
T2 sequence (Q6K2E8 40-644 limits assumed): T1 sequence (Q6K2E8 40-644 limits assumed)
The experiment is described as follows: AHAS enzyme assay, extract from rice variety Mercury. Format: biochemical.
Excerpt: as §1

For experiment [3], the system named is resistant progeny row (rice line ATCC 75295). Kind of experiment: Open-field spray screen of anther-culture progeny rows, resistant row. The experiment is classed as in vivo. Here is the method: This resistant line was derived by conducting anther culture on the F2 progeny of a backcross made by pollinating a rice plant of the variety "Lemont" with pollen from the rice variety "Mercury," followed by a backcross using pollen from this hybrid to pollinate a plant of the variety "Mercury." The resulting backcross is described as Mercury//Lemont/Mercury. Anthers collected from a plant resulting from this backcross were plated on callus induction medium, and the resulting calli were transferred to plant regeneration media. The procedures used were generally as described in Croughan and Chu, "Rice (Oryza saliva L.): Establishment of Callus Cultures and the Regeneration of Plants" in Bajaj (Ed.), "Biotechnology in Agriculture and Forestry," pp. 19-37 (1991). Several regenerated plants were produced and grown to maturity in a greenhouse to produce seed. Progeny seed were planted in an open field, and herbicide applications were made using a garden tractor-mounted spray rig.
A set of 4,193 progeny rows derived from this anther culture procedure were planted in an open field, and were sprayed with 4 ounces per acre of Pursuit (1.00 ounce active ingredient imazethapyr per acre) at the four-leaf stage of seedling development. […]

Experiment [4] deals with mutagenised rice seedlings of ten rice varieties. The experiment is described as follows: Field screen of mutagenised rice seedlings, all other plants. As to conditions: 2X treatment: nicosulfuron 0.063 lb a.i. per acre, imazethapyr 0.125 lb a.i. per acre; 0.25% non-ionic surfactant; 3-4 leaf stage; about four weeks later. The experiment is classed as in vivo. The source says:
The second resistance mechanism resulted from inducing mutations in seeds of each of ten rice varieties. Mutations were induced by exposure either to gamma rays or to the chemical mutagen ethyl methanesulfonate (EMS). Ten-pound lots of seed of each variety were subjected to 25 k-rad of gamma irradiation from a Cobalt-60 source at the Nuclear Science Center, Louisiana State University, Baton Rouge, La. prior to planting. An additional ten pounds of seed of each variety was divided into three equal portions; and each portion was soaked for 16 hours in either 0.1%, 0.5%, or 1% EMS immediately prior to planting. Several hundred pounds of seed were harvested from plants grown from the seeds subjected to these mutagenic treatments.
The following spring the harvested seed was planted in strips in a field planting occupying a total of about three acres. At the 3-4 leaf stage of seedling development, herbicides were applied to screen for herbicide-resistant mutants. Half of the seedlings of each variety were sprayed with a 2X treatment of nicosulfuron, and half were sprayed with a 2X treatment of imazethapyr, in both cases by a tractor-mounted sprayer. Nicosulfuron was applied at the rate of 0.063 lb active ingredient (a.i.) per acre, and imazethapyr was applied at 0.125 lb a.i. per acre. Non-ionic surfactant (0.25%) was added to each spray solution. […]

For the compound `CCc1cnc(C2=NC(C)(C(C)C)C(=O)N2)c(C(=O)O)c1` (racemic) [imazethapyr, (±)-2-[4,5-dihydro-4-methyl-4-(1-methylethyl)-5-oxo-1H-imidazol-2-yl]-5-ethyl-3-pyridinecarboxylic acid], the activity at 0.1 µM came to 102% in experiment [1] (imazethapyr 0.1 μM) and 100% in experiment [2] (imazethapyr 0.1 μM). The activity at 1 µM in experiment [1] (imazethapyr 1 μM) was 102%; in experiment [2] (imazethapyr 1 μM), 89%. In addition, the activity at 10 µM in experiment [1] (imazethapyr 10 μM) was found to be 87%; in experiment [2] (imazethapyr 10 μM) it was 64%. In addition, the activity at 100 µM worked out at 81% in experiment [1] (imazethapyr 100 μM) and 62% in experiment [2] (imazethapyr 100 μM). Also, the “Symptoms (in words)” value is “no apparent symptoms” in experiment [3] (4 ounces per acre Pursuit (1.00 ounce a.i. per acre), four-leaf stage, open field) and “no apparent symptoms” in experiment [3] (second spray 8 ounces/acre Pursuit (2.00 ounce a.i. per acre), four weeks after the initial treatment). In experiment [4], the “Symptoms of injury (in words)” value is listed as “either severely injured or dead”.
